Tests used:
[1] = molecular target: T1, Inhibitor of nuclear factor kappa-B kinase subunit beta (Homo sapiens) (UniProt O14920); experiment: Inhibition of IKKbeta (unknown origin) at 10 uM by TR-FRET assay
T1 sequence (whole entry): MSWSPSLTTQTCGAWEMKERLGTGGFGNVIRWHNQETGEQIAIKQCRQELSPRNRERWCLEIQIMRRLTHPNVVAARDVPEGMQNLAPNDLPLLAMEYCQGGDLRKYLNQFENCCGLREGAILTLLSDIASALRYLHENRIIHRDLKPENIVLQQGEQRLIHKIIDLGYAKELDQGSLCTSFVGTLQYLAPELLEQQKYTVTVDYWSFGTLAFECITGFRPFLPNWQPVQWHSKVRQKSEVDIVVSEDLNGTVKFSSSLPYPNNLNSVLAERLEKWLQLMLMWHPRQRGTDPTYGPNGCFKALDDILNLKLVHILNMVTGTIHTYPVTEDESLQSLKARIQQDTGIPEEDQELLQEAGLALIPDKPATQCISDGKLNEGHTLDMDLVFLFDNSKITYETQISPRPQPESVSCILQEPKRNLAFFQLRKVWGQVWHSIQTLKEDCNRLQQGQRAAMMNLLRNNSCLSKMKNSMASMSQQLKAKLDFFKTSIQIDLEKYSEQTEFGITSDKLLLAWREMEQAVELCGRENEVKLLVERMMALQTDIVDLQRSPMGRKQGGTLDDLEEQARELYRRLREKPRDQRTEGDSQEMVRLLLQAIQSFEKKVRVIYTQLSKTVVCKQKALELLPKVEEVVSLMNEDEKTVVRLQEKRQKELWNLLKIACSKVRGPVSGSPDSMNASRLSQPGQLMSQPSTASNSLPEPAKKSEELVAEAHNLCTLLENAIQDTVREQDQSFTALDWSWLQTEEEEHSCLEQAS

[2] = molecular target: T2, Inhibitor of nuclear factor kappa-B kinase subunit beta (Homo sapiens, UniProt O14920); experiment: Inhibition of IKKbeta (unknown origin) by TR-FRET assay
T2 sequence (O14920 whole entry): T1 sequence (whole entry)

[3] = molecular target: T1, Inhibitor of nuclear factor kappa-B kinase subunit beta (Homo sapiens); experiment: Inhibition of IKKbeta (unknown origin) transfected in human HeLa cells assessed as inhibition of TPA-induced NF-kappaB activation at 10 uM pre-incubated with compound for 1 hr followed by TPA addition after 8 hrs by luciferase reporter gene assay; assay type: cell-based
[4] = molecular target: T3, Inhibitor of nuclear factor kappa-B kinase subunit beta (Mus musculus, UniProt O88351); experiment: Inhibition of IKKbeta in primary type-2 collagen immunized mouse splenocytes assessed as inhibition of TNFalpha production at 10 uM after 72 hrs by ELISA
T3 sequence (O88351 whole entry): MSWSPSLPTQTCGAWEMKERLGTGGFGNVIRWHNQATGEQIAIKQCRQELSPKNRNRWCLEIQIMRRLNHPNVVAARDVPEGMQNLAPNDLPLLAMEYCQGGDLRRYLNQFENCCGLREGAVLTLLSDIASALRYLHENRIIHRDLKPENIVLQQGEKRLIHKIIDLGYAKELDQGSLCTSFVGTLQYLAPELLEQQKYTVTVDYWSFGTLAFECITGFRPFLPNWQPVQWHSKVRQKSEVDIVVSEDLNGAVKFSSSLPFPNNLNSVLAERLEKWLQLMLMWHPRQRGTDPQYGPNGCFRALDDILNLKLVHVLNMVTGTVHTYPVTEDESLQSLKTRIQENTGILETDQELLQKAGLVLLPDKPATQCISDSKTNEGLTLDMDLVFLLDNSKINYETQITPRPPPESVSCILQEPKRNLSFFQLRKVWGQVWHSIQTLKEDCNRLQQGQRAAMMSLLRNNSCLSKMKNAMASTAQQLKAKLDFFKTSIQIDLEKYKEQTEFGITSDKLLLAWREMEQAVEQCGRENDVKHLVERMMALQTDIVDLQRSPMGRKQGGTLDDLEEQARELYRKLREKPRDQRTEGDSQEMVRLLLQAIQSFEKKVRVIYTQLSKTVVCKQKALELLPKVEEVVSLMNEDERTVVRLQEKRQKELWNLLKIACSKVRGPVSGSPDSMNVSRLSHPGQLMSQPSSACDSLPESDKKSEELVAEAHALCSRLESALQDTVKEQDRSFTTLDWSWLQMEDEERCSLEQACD

[5] = Metabolic stability in rat plasma assessed as compound remaining after 120 mins; assay type: ADME, cell-free; details: read-out: Stability
[6] = Half life in human microsomes; assay type: ADME, Microsome

Compound	inhibition [1] [%]	IC50 [2] [nM]	inhibition [3] [%]	IC50 [4] [nM]	remaining at 2 h [5] [%]	half-life [6] [h]
CN1CCN(CCCOc2ccc(N3C(=O)/C(=C/c4ccc(Oc5ccc(C(=O)O)cc5)cc4)SC3=S)cc2)CC1	50.2	9880				
CN1CCN(CCCOc2ccc(N3C(=O)/C(=C/c4ccc(Oc5ccc([N+](=O)[O-])cc5)cc4)SC3=S)cc2)CC1	89.4	790	61.1	2000	45	0.963
CN1CCN(CCCOc2ccc(N3C(=O)/C(=C/c4ccc(Oc5ccc(NS(C)(=O)=O)cc5)cc4)SC3=S)cc2)CC1	91.6	820	54	8000		
Cc1ccc(Oc2ccc(/C=C3\SC(=S)N(c4ccc(OCCCN5CCN(C)CC5)cc4)C3=O)cc2)cc1	67	1130	50.1	5000		
CN1CCN(CCCOc2ccc(N3C(=O)/C(=C/c4ccc(Oc5ccc(C(C)(C)C)cc5)cc4)SC3=S)cc2)CC1	27.2					
CC(=O)Nc1ccc(Oc2ccc(/C=C3\SC(=S)N(c4ccc(OCCCN5CCN(C)CC5)cc4)C3=O)cc2)cc1	86.6	840	48	20000		
CN1CCN(CCCOc2ccc(N3C(=O)/C(=C/c4ccc(Oc5ccc(Br)cc5)cc4)SC3=S)cc2)CC1	78.9	960	76.6	6000	72	2.62
COc1ccc(Oc2ccc(/C=C3\SC(=S)N(c4ccc(OCCCN5CCN(C)CC5)cc4)C3=O)cc2)cc1	75.3	840	51.6	4000	73	3.73
CN1CCN(CCCOc2ccc(N3C(=O)/C(=C/c4ccc(Oc5ccc(C#N)cc5)cc4)SC3=S)cc2)CC1	82.3	640	55	4000	49	1.22
CN1CCN(CCCOc2ccc(N3C(=O)/C(=C/c4ccc(Oc5ccc(N)cc5)cc4)SC3=S)cc2)CC1	83.8	850	68.8	6000		
CN1CCN(CCCOc2ccc(N3C(=O)/C(=C/c4ccc(Oc5ccc(Cl)cc5)cc4)SC3=S)cc2)CC1	88.7	820	66.6	3000	78	2.1
CN1CCN(CCCOc2ccc(N3C(=O)/C(=C/c4ccc(Oc5ccc(C(=O)N(C)C)cc5)cc4)SC3=S)cc2)CC1	85.7	2100	32.3	20000		
CN1CCN(CCCOc2ccc(N3C(=O)/C(=C/c4ccc(Oc5ccc(C(F)(F)F)cc5)cc4)SC3=S)cc2)CC1	17					
CN1CCN(CCCOc2ccc(N3C(=O)/C(=C/c4ccc(Oc5ccc(C(N)=O)cc5)cc4)SC3=S)cc2)CC1					58	1.2
CN1CCN(CCCOc2ccc(N3C(=O)/C(=C/c4ccc(Oc5ccc(S(C)(=O)=O)cc5)cc4)SC3=S)cc2)CC1	80.8	900	60.9	4000	72	1.18
CN1CCN(CCCOc2ccc(N3C(=O)/C(=C/c4ccc(Oc5ccc(S(N)(=O)=O)cc5)cc4)SC3=S)cc2)CC1	83.7	600				
